{"source": "patent US11370798B2", "about": "(Vertex Pharmaceuticals Incorporated, priority 2012, dated 2022)"}
{"test_system": "HCT116 colorectal cancer cells", "test": "Cisplatin sensitization assay (96 h cell viability MTS);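 further: Test-compound concentration that lowers the Cisplatin IC50 by a set fold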", "type": "cell-based", "conditions": "compound and Cisplatin added simultaneously, Cisplatin sensitization value", "outline": "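Viability read by MTS (1 h at 37° C) after 96 h co-exposure at 37° C, 5% CO2. Test compound and cisplatin were dosed simultaneously in a full concentration matrix, each 2-fold serially diluted from 10 μM final; sensitization values binned in μM.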"}
{"smiles": "Nc1nn2cc(F)cnc2c1C(=O)Nc1cnccc1N1CCC2(CCNC2)CC1", "note": "[I-N-255, N-(4-(2,8-diazaspiro[4.5]decan-8-yl)pyridin-3-yl)-2-amino-6-fluoropyrazolo[1,5-a]pyrimidine-3-carboxamide]", "Cisplatin Sensitization Assay": "++ (Cisplatin sensitization value>0.02 μM but <0.2 μM)"}
{"smiles": "CN1CCC(Oc2ccncc2NC(=O)c2c(N)nn3cc(Cl)cnc23)CC1", "note": "[I-O-64, 2-amino-6-chloro-N-(4-((1-methylpiperidin-4-yl)oxy)pyridin-3-yl)pyrazolo[1,5-a]pyrimidine-3-carboxamide]", "Cisplatin Sensitization Assay": "+++ (Cisplatin sensitization value of <0.02 μM)"}
{"smiles": "CN1CCC(N(C)S(=O)(=O)C2CCN(c3c(F)cncc3NC(=O)c3c(N)nn4cc(F)cnc34)CC2)CC1", "note": "[I-N-148, 2-amino-6-fluoro-N-(5-fluoro-4-(4-(N-methyl-N-(1-methylpiperidin-4-yl)sulfamoyl)piperidin-1-yl)pyridin-3-yl)pyrazolo[1,5-a]pyrimidine-3-carboxamide]", "Cisplatin Sensitization Assay": "+++ (Cisplatin sensitization value of <0.02 μM)"}
{"smiles": "CC(C#N)c1cnc2c(C(=O)Nc3cnccc3N3CCN(C4COC4)CC3)c(N)nn2c1", "note": "(stereo not shown) [I-N-143, 2-amino-6-(1-cyanoethyl)-N-(4-(4-(oxetan-3-yl)piperazin-1-yl)pyridin-3-yl)pyrazolo[1,5-a]pyrimidine-3-carboxamide]", "Cisplatin Sensitization Assay": "++ (Cisplatin sensitization value>0.02 μM but <0.2 μM)"}
{"smiles": "Nc1nn2cc(F)cnc2c1C(=O)Nc1cnccc1-c1ccc(C(=O)N2CCN(C3COC3)CC2)cc1F", "note": "[I-C-51, 2-amino-6-fluoro-N-(4-(2-fluoro-4-(4-(oxetan-3-yl)piperazine-1-carbonyl)phenyl)pyridin-3-yl)pyrazolo[1,5-a]pyrimidine-3-carboxamide]", "Cisplatin Sensitization Assay": "++ (Cisplatin sensitization value>0.02 μM but <0.2 μM)"}
{"smiles": "COCCS(=O)(=O)C1CCN(c2ccncc2NC(=O)c2c(N)nn3cc(F)cnc23)CC1", "note": "[I-N-208, 2-amino-6-fluoro-N-(4-(4-((2-methoxyethyl)sulfonyl)piperidin-1-yl)pyridin-3-yl)pyrazolo[1,5-a]pyrimidine-3-carboxamide]", "Cisplatin Sensitization Assay": "+++ (Cisplatin sensitization value of <0.02 μM)"}
{"smiles": "Nc1nn2cc(F)cnc2c1C(=O)Nc1cnccc1C1CCN(S(=O)(=O)C2CC2)CC1", "note": "[I-C-47, 2-amino-N-(4-(1-(cyclopropylsulfonyl)piperidin-4-yl)pyridin-3-yl)-6-fluoropyrazolo[1,5-a]pyrimidine-3-carboxamide]", "Cisplatin Sensitization Assay": "+++ (Cisplatin sensitization value of <0.02 μM)"}
{"smiles": "CN1CC2CN(C(=O)C3CCN(c4c(F)cncc4NC(=O)c4c(N)nn5cc(F)cnc45)CC3)CC2C1", "note": "(stereo not shown) [I-G-18, 2-amino-6-fluoro-N-(5-fluoro-4-(4-(5-methyloctahydropyrrolo[3,4-c]pyrrole-2-carbonyl)piperidin-1-yl)pyridin-3-yl)pyrazolo[1,5-a]pyrimidine-3-carboxamide]", "Cisplatin Sensitization Assay": "+++ (Cisplatin sensitization value of <0.02 μM)"}
{"smiles": "N#CCc1cnc2c(C(=O)Nc3cnccc3N3CCNCC3)c(N)nn2c1", "note": "[I-N-89, 2-amino-6-(cyanomethyl)-N-(4-(piperazin-1-yl)pyridin-3-yl)pyrazolo[1,5-a]pyrimidine-3-carboxamide]", "Cisplatin Sensitization Assay": "++ (Cisplatin sensitization value>0.02 μM but <0.2 μM)"}
{"smiles": "CN1CCC(c2ccncc2NC(=O)c2c(N)nn3cc(C(C)(C)C#N)cnc23)CC1", "note": "[I-C-23, 2-amino-6-(2-cyanopropan-2-yl)-N-(4-(1-methylpiperidin-4-yl)pyridin-3-yl)pyrazolo[1,5-a]pyrimidine-3-carboxamide]", "Cisplatin Sensitization Assay": "+ (Cisplatin sensitization value>0.2 μM but <5 μM)"}
{"smiles": "CN1C(=O)CCC12CCN(c1ccncc1NC(=O)c1c(N)nn3cc(F)cnc13)CC2", "note": "[I-N-235, 2-amino-6-fluoro-N-(4-(1-methyl-2-oxo-1,8-diazaspiro[4.5]decan-8-yl)pyridin-3-yl)pyrazolo[1,5-a]pyrimidine-3-carboxamide]", "Cisplatin Sensitization Assay": "++ (Cisplatin sensitization value>0.02 μM but <0.2 μM)"}
{"smiles": "Nc1nn2cc(Cl)cnc2c1C(=O)Nc1cnccc1N1CCCC(N)C1", "note": "(stereo not shown) [I-N-55, 2-amino-N-(4-(3-aminopiperidin-1-yl)pyridin-3-yl)-6-chloropyrazolo[1,5-a]pyrimidine-3-carboxamide]", "Cisplatin Sensitization Assay": "++ (Cisplatin sensitization value>0.02 μM but <0.2 μM)"}
{"smiles": "Cc1ccncc1NC(=O)c1c(N)nn2cc(Cl)cnc12", "note": "[I-C-2, 2-amino-6-chloro-N-(4-methylpyridin-3-yl)pyrazolo[1,5-a]pyrimidine-3-carboxamide]", "Cisplatin Sensitization Assay": "++ (Cisplatin sensitization value>0.02 μM but <0.2 μM)"}
{"smiles": "Cc1ncccc1-c1ccncc1NC(=O)c1c(N)nn2cc(F)cnc12", "note": "[I-C-20, 2-amino-6-fluoro-N-(2-methyl-[3,4′-bipyridin]-3′-yl)pyrazolo[1,5-a]pyrimidine-3-carboxamide]", "Cisplatin Sensitization Assay": "+++ (Cisplatin sensitization value of <0.02 μM)"}
{"smiles": "Cc1nc(C(F)(F)F)cn1-c1ccncc1NC(=O)c1c(N)nn2cc(F)cnc12", "note": "[I-N-30, 2-amino-6-fluoro-N-(4-(2-methyl-4-(trifluoromethyl)-1H-imidazol-1-yl)pyridin-3-yl)pyrazolo[1,5-a]pyrimidine-3-carboxamide]", "Cisplatin Sensitization Assay": "++ (Cisplatin sensitization value>0.02 μM but <0.2 μM)"}
{"smiles": "CN1CCC(Oc2c(Cl)cncc2NC(=O)c2c(N)nn3cc(Cl)cnc23)CC1", "note": "[I-O-46, 2-amino-6-chloro-N-(5-chloro-4-((1-methylpiperidin-4-yl)oxy)pyridin-3-yl)pyrazolo[1,5-a]pyrimidine-3-carboxamide]", "Cisplatin Sensitization Assay": "+ (Cisplatin sensitization value>0.2 μM but <5 μM)"}
{"smiles": "CN(C)[C@H]1CCN(c2ccncc2NC(=O)c2c(N)nn3cc(Cl)cnc23)C[C@@H]1O", "note": "[I-N-35, 2-amino-6-chloro-N-(4-((3S,4S)-4-(dimethylamino)-3-hydroxypiperidin-1-yl)pyridin-3-yl)pyrazolo[1,5-a]pyrimidine-3-carboxamide]", "Cisplatin Sensitization Assay": "+ (Cisplatin sensitization value>0.2 μM but <5 μM)"}
{"smiles": "Cc1cncc(NC(=O)c2c(N)nn3cc(F)cnc23)c1N1CCC(C(=O)N2CCN(C)CC2)CC1", "note": "[I-G-55, 2-amino-6-fluoro-N-(5-methyl-4-(4-(4-methylpiperazine-1-carbonyl)piperidin-1-yl)pyridin-3-yl)pyrazolo[1,5-a]pyrimidine-3-carboxamide]", "Cisplatin Sensitization Assay": "+++ (Cisplatin sensitization value of <0.02 μM)"}
{"smiles": "Nc1nn2cc(F)cnc2c1C(=O)Nc1cncc(C2CC2)c1N1CCN([C@@H]2CCOC2)CC1", "note": "[I-N-119, (R)-2-amino-N-(5-cyclopropyl-4-(4-(tetrahydrofuran-3-yl)piperazin-1-yl)pyridin-3-yl)-6-fluoropyrazolo[1,5-a]pyrimidine-3-carboxamide]", "Cisplatin Sensitization Assay": "++ (Cisplatin sensitization value>0.02 μM but <0.2 μM)"}
{"smiles": "Cn1nncc1-c1ccncc1NC(=O)c1c(N)nn2cc(F)cnc12", "note": "[I-C-72, 2-amino-6-fluoro-N-(4-(1-methyl-1H-1,2,3-triazol-5-yl)pyridin-3-yl)pyrazolo[1,5-a]pyrimidine-3-carboxamide]", "Cisplatin Sensitization Assay": "+++ (Cisplatin sensitization value of <0.02 μM)"}
{"smiles": "CN1CC(N2CCN(C(=O)C3CCN(c4c(F)cncc4NC(=O)c4c(N)nn5cc(F)cnc45)CC3)CC2)C1", "note": "[I-G-96, 2-amino-6-fluoro-N-(5-fluoro-4-(4-(4-(1-methylazetidin-3-yl)piperazine-1-carbonyl)piperidin-1-yl)pyridin-3-yl)pyrazolo[1,5-a]pyrimidine-3-carboxamide]", "Cisplatin Sensitization Assay": "+++ (Cisplatin sensitization value of <0.02 μM)"}
{"smiles": "Nc1nn2cc(F)cnc2c1C(=O)Nc1cnccc1N1CCN(C(=O)C2COC2)CC1", "note": "[I-N-249]", "Cisplatin Sensitization Assay": "+++ (Cisplatin sensitization value of <0.02 μM)"}
{"smiles": "CN1CCN(c2c(F)cncc2NC(=O)c2c(N)nn3cc(F)cnc23)CC1=O", "note": "[I-N-212, 2-amino-6-fluoro-N-(5-fluoro-4-(4-methyl-3-oxopiperazin-1-yl)pyridin-3-yl)pyrazolo[1,5-a]pyrimidine-3-carboxamide]", "Cisplatin Sensitization Assay": "+++ (Cisplatin sensitization value of <0.02 μM)"}
{"smiles": "N#CC1(C(=O)N2CCC(c3ccncc3NC(=O)c3c(N)nn4cc(F)cnc34)CC2)CC1", "note": "[I-C-71, 2-amino-N-(4-(1-(1-cyanocyclopropanecarbonyl)piperidin-4-yl)pyridin-3-yl)-6-fluoropyrazolo[1,5-a]pyrimidine-3-carboxamide]", "Cisplatin Sensitization Assay": "+++ (Cisplatin sensitization value of <0.02 μM)"}
{"smiles": "CC1CN(C)CCN1c1ccncc1NC(=O)c1c(N)nn2cc(Cl)cnc12", "note": "(stereo not shown) [I-N-72, 2-amino-6-chloro-N-(4-(2,4-dimethylpiperazin-1-yl)pyridin-3-yl)pyrazolo[1,5-a]pyrimidine-3-carboxamide]", "Cisplatin Sensitization Assay": "+++ (Cisplatin sensitization value of <0.02 μM)"}
{"smiles": "Nc1nn2cc(Cl)cnc2c1C(=O)Nc1cnccc1OCC(F)(F)F", "note": "[I-O-59, 2-amino-6-chloro-N-(4-(2,2,2-trifluoroethoxy)pyridin-3-yl)pyrazolo[1,5-a]pyrimidine-3-carboxamide]", "Cisplatin Sensitization Assay": "+++ (Cisplatin sensitization value of <0.02 μM)"}
{"smiles": "Cc1ncnn1-c1c(F)cncc1NC(=O)c1c(N)nn2cc(F)cnc12", "note": "[I-N-242, 2-amino-6-fluoro-N-(5-fluoro-4-(5-methyl-1H-1,2,4-triazol-1-yl)pyridin-3-yl)pyrazolo[1,5-a]pyrimidine-3-carboxamide]", "Cisplatin Sensitization Assay": "+ (Cisplatin sensitization value>0.2 μM but <5 μM)"}
{"smiles": "N#CCc1cnc2c(C(=O)Nc3cnccc3O[C@@H]3CCNC3)c(N)nn2c1", "note": "[I-O-87, (R)-2-amino-6-(cyanomethyl)-N-(4-(pyrrolidin-3-yloxy)pyridin-3-yl)pyrazolo[1,5-a]pyrimidine-3-carboxamide]", "Cisplatin Sensitization Assay": "++ (Cisplatin sensitization value>0.02 μM but <0.2 μM)"}
